Square brackets hold non-standard residues; d marks the D form. * marks the point of attachment. Myristoyl = CCCCCCCCCCCCCC(=O)*
Key:
[1] = test system: nutritionally induced type 2 diabetes in Psammomys obesus; assay: Nutritionally induced diabetes in Psammomys obesus model: whole blood glucose by glucometer; format: in vivo; details: diabetic Psammomys on high energy diet; three intraperitoneal injections of 10 mg/kg, 5 days apart
Method: Psammomys obesus gerbils males or females weighing 160-200 g in the fed state were used. […] The animals were then injected intraperitoneally with 10 mg/kg of the peptide dissolved in dimethylsulphoxide solvent (or with solvent alone in controls). […] Whole blood glucose was measured by a glucometer on a minidroplet of blood withdrawn from the end of the tail. Three injections were given 5 days apart and after 14 days or earlier the high blood glucose levels of the animals became normal, the controls remained at the 300-400 mg/dl level. The normal level lasted at least for 3 to 5 days after the last injection. […] The line with asterisk represents the control animal. Other lines are those of individual injected animals.

pancreatic beta cells = assay: Histology (hematoxylin-eosin) and insulin immunostaining of pancreatic beta cells; format: in vivo, Psammomys obesus; details: diabetic Psammomys, peptide treatment for 14 days
Method: For assaying the insulin signaling pathway components and electronmicroscopic examination of the pancreatic beta cells, animals were killed by decapitation in the fed state in the morning three days after the third intraperitoneal peptide injection. Blood was collected and serum insulin levels was determined by radioimmunoassay, using anti-human antibodies. The gastrocnemius muscles from both legs were excised, immediately frozen in liquid nitrogen, and then stored at −80° C. The electronmicroscopic examination of pancreatic beta cells was performed on slices of pancreatic paraffin blocks according to the method of Joins et al., 2002, Virchovs Arch 440: 63-69. The histologic and immunostaining properties of the pancreatic beta cells in diabetic Psammomys gerbils injected with peptide 12 were investigated in order to check whether the beta cells are protected from hyperglycemia. […] FIGS. 5A and 5B describe representative hematoxylin-eosin stained beta cell and insulin immunostained beta cells in diabetic and treated animals.

[2] = test system: serine phosphorylation of IRS by PKC; assay: Immunoblot of serine phosphorylation of IRS in muscle lysates; format: in vivo, Psammomys obesus; details: treated vs non-treated animal
Method: (§1) For assaying the insulin signaling pathway components and electronmicroscopic examination of the pancreatic beta cells, animals were killed by decapitation in the fed state in the morning three days after the third intraperitoneal peptide injection. Blood was collected and serum insulin levels was determined by radioimmunoassay, using anti-human antibodies. The gastrocnemius muscles from both legs were excised, immediately frozen in liquid nitrogen, and then stored at −80° C.
(§2) Immunoblot analysis of insulin signaling molecules were performed using muscle homogenates prepared in a homogenization buffer that contained 20 mmol/l HEPES, 8 mmol/l EDTA, 0.2 mmol/l Na3VO4, 10 mmol/l Na4P2O7, 2.5 mmol/l, 2 mM phenylmathylsulfonyl fluorid, 160 mmol/l NaF, 2 mmol/l DCA, 1% Triton X-100, 1% protease inhibitor cocktail and 1% phaphatase inhibitor cocktail (Sigma®) pH 7.4. Equal amount of cell lysate were dissolved in Laemmli buffer and subjected to SDS-PAGE gel separation. The separated proteins were transferred to nitrocellulose membranes. […] All protein data were quantified by densitometry. […]
(§3) The extent of phosphorylation of the components of the insulin signaling pathway (signal proteins) in the muscle lysates of the treated and non-treated animals “ ” was investigated. FIG. 6 presents the relative extent of serine phosphorylation of IRS by PKC as determined by immunobloting with a specific antibody. […]

PKB/AKT = assay: Immunoblot of serine phosphorylation of PKB/AKT in muscle lysates; format: in vivo, Psammomys obesus; details: treated vs non-treated animal
Method: as §1, §2, §3

[3] = test system: glucose transporter GLUT4 protein; assay: Immunoblot of GLUT4 protein amount in muscle lysates; format: in vivo, Psammomys obesus; details: treated vs non-treated animal
Method: as §1, §2, §3

| Substance | hypoglycemic effect (blood glucose) [1] | immunostainable insulin content of the pancreatic beta cells (pancreatic beta cells) | beta cell structure (pancreatic beta cells; hematoxylin-eosin staining) | relative extent of serine phosphorylation of IRS by PKC [2] | relative extent of phosphorylation of serine in PKB/AKT (PKB/AKT) | relative amount of the glucose transporter GLUT4 protein [3] |
| --- | --- | --- | --- | --- | --- | --- |
| myristoyl-Gly-Asn-Leu-Met-Phe-Gln-Ile-Gln-Arg-Ser-Arg-Lys-Phe-amide (Myristoyl-GNLMFQIQRSRKF-NH2; SMILES CCCCCCCCCCCCCC(=O)NCC(=O)N[C@@H](CC(N)=O)C(=O)N[C@@H](CC(C)C)C(=O)N[C@@H](CCSC)C(=O)N[C@@H](Cc1ccccc1)C(=O)N[C@@H](CCC(N)=O)C(=O)N[C@H](C(=O)N[C@@H](CCC(N)=O)C(=O)N[C@@H](CCCNC(=N)N)C(=O)N[C@@H](CO)C(=O)N[C@@H](CCCNC(=N)N)C(=O)N[C@@H](CCCCN)C(=O)N[C@@H](Cc1ccccc1)C(N)=O)[C@@H](C)CC) [peptide 16, myristoylated peptide analog derived from the αD region of PKC-ε] | hypoglycemic effect |  |  |  |  |  |
| myristoyl-Gly-Met-Ala-(D)Lys-Gln-Pro-Pro-Phe-amide (Myristoyl-GMA[dK]QPPF-NH2; SMILES CCCCCCCCCCCCCC(=O)NCC(=O)N[C@@H](CCSC)C(=O)N[C@@H](C)C(=O)N[C@H](CCCCN)C(=O)N[C@@H](CCC(N)=O)C(=O)N1CCC[C@H]1C(=O)N1CCC[C@H]1C(=O)N[C@@H](Cc1ccccc1)C(N)=O) [peptide 7, myristoylated peptide analog derived from the HJ region of PKC-ε] | hypoglycemic effect |  |  |  |  |  |
| myristoyl-Gly-Phe-Gln-Ile-Gln-Arg-Ser-Arg-Lys-Phe-Asn-amide (Myristoyl-GFQIQRSRKFN-NH2; SMILES CCCCCCCCCCCCCC(=O)NCC(=O)N[C@@H](Cc1ccccc1)C(=O)N[C@@H](CCC(N)=O)C(=O)N[C@H](C(=O)N[C@@H](CCC(N)=O)C(=O)N[C@@H](CCCNC(=N)N)C(=O)N[C@@H](CO)C(=O)N[C@@H](CCCNC(=N)N)C(=O)N[C@@H](CCCCN)C(=O)N[C@@H](Cc1ccccc1)C(=O)N[C@@H](CC(N)=O)C(N)=O)[C@@H](C)CC) [peptide 12, myristoylated peptide analog derived from the αD region of PKC-ε] | hypoglycemic effect | replenished | markedly improved | much lower | reduced | elevated |
